From ChEMBL document CHEMBL1201862, “PubChem BioAssay data set” (2004)
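Each compound was tested at five concentrations against cells in 96-well plates for 48 hours. GI50: concentration for 50% inhibition of growth.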 Activity calls are given as the source filed them. Cut-off read from the data, not from the text of the source: active = GI50 up to about 1.1 µM and inactive = higher.

What was measured:
Assay in all cases: DTP human tumour cell line panel, 48 h
UACC-257 = test system: UACC-257
OVCAR-3 = test system: OVCAR-3
NCI-H522 = test system: NCI-H522
NCI-H226 = test system: NCI-H226
M14 = test system: M14
KM12 = test system: KM12
UACC-62 = test system: UACC-62
RPMI-8226 = test system: RPMI-8226
SF-268 = test system: SF-268
SN12C = test system: SN12C
OVCAR-8 = test system: OVCAR-8
HCC 2998 = test system: HCC 2998
A549 = test system: A549
SK-MEL-28 = test system: SK-MEL-28
SNB-19 = test system: SNB-19
Malme-3M = test system: Malme-3M
HCT-15 = test system: HCT-15
IGROV-1 = test system: IGROV-1
SK-MEL-5 = test system: SK-MEL-5
EKVX = test system: EKVX

SMILES	GI50 (UACC-257)	GI50 (OVCAR-3)	GI50 (NCI-H522)	GI50 (NCI-H226)	GI50 (M14)	GI50 (KM12)	GI50 (UACC-62)	GI50 (RPMI-8226)	GI50 (SF-268)	GI50 (SN12C)	GI50 (OVCAR-8)	GI50 (HCC 2998)	GI50 (A549)	GI50 (SK-MEL-28)	GI50 (SNB-19)	GI50 (Malme-3M)	GI50 (HCT-15)	GI50 (IGROV-1)	GI50 (SK-MEL-5)	GI50 (EKVX)
CCOC(=O)C1=C(Nc2ccccc2)SCC1=O	> 100 µM (inactive)	> 100 µM (inactive)	> 100 µM (inactive)	> 100 µM (inactive)	> 100 µM (inactive)	> 100 µM (inactive)	> 100 µM (inactive)	> 100 µM (inactive)	> 100 µM (inactive)	> 100 µM (inactive)	> 100 µM (inactive)	> 100 µM (inactive)	> 100 µM (inactive)	> 100 µM (inactive)	> 100 µM (inactive)	> 100 µM (inactive)	> 100 µM	> 100 µM (inactive)		
COC(Cc1cc(C(O)(c2ccc(C(C)(C)C)cc2)c2cc(CC(OC)(c3cc(C(OC)(c4ccc(C(C)(C)C)cc4)c4ccc(C(C)(C)C)cc4)c(C)cc3C)c3cc(C(OC)(c4ccc(C(C)(C)C)cc4)c4ccc(C(C)(C)C)cc4)c(C)cc3C)c(C)cc2C)c(C)cc1C)(c1cc(C(OC)(c2ccc(C(C)(C)C)cc2)c2ccc(C(C)(C)C)cc2)c(C)cc1C)c1cc(C(OC)(c2ccc(C(C)(C)C)cc2)c2ccc(C(C)(C)C)cc2)c(C)cc1C	> 75 µM (inactive)	> 75 µM (inactive)		> 75 µM (inactive)	> 75 µM (inactive)		> 75 µM (inactive)		> 75 µM (inactive)	> 75 µM (inactive)	> 75 µM (inactive)	> 75 µM (inactive)	> 75 µM (inactive)	> 75 µM (inactive)	> 75 µM (inactive)	> 75 µM (inactive)	> 75 µM	> 75 µM (inactive)	> 75 µM (inactive)	> 75 µM (inactive)
Cc1cc(C)c(S(=O)(=O)N(CCCCCN)OCCCN)c(C)c1	17.1 µM (inactive)	17.5 µM (inactive)		14.8 µM (inactive)	18.3 µM (inactive)	19 µM (inactive)	17.7 µM (inactive)	11.7 µM (inactive)	20.3 µM (inactive)	18.1 µM (inactive)	18.8 µM (inactive)	7.14 µM (inactive)	19 µM (inactive)	16.9 µM (inactive)	20.3 µM (inactive)	23.4 µM (inactive)		13.9 µM (inactive)	16.3 µM (inactive)	15.9 µM (inactive)
Cc1nc2c(c(=O)[nH]1)S/C(=C(/C#N)c1nc3ccccc3[nH]1)N2c1ccccc1	> 100 µM (inactive)	> 100 µM (inactive)	> 100 µM (inactive)		> 100 µM (inactive)	> 100 µM (inactive)	> 100 µM (inactive)	> 100 µM (inactive)	> 100 µM (inactive)	> 100 µM (inactive)	> 100 µM (inactive)	> 100 µM (inactive)	> 100 µM (inactive)	> 100 µM (inactive)	> 100 µM (inactive)	> 100 µM (inactive)	> 100 µM	> 100 µM (inactive)	> 100 µM (inactive)	> 100 µM (inactive)
OC(c1ccc(-c2ccccc2)cc1)(c1ccc(-c2ccccc2)cc1)c1ccc(-c2ccccc2)cc1	> 100 µM (inactive)	> 100 µM (inactive)	> 100 µM (inactive)		52.7 µM (inactive)	> 100 µM (inactive)	> 100 µM (inactive)	> 100 µM (inactive)	> 100 µM (inactive)	> 100 µM (inactive)	> 100 µM (inactive)		> 100 µM (inactive)	> 100 µM (inactive)	> 100 µM (inactive)		4.56 µM	> 100 µM (inactive)	> 100 µM (inactive)	> 100 µM (inactive)
CC(=O)CC(=O)/C=C/c1cccs1	> 100 µM (inactive)	> 100 µM (inactive)	42.3 µM (inactive)	> 100 µM (inactive)	54.2 µM (inactive)	55.2 µM (inactive)	44.6 µM (inactive)	34.6 µM (inactive)	45 µM (inactive)	63 µM (inactive)	> 100 µM (inactive)		> 100 µM (inactive)		> 100 µM (inactive)	58.2 µM (inactive)	47.8 µM	> 100 µM (inactive)	37.1 µM (inactive)	> 100 µM (inactive)
O=C(O)/C=C/c1nc2ccccc2c(=O)o1		> 100 µM (inactive)	> 100 µM (inactive)	> 100 µM (inactive)	> 100 µM (inactive)	> 100 µM (inactive)	> 100 µM (inactive)	> 100 µM (inactive)		> 100 µM (inactive)	> 100 µM (inactive)	> 100 µM (inactive)	> 100 µM (inactive)	> 100 µM (inactive)	> 100 µM (inactive)		> 100 µM	> 100 µM (inactive)	> 100 µM (inactive)	> 100 µM (inactive)
CN(C(=O)c1ccccc1)c1ccc2c(c1)C(=O)c1ccccc1C2=O	> 100 µM (inactive)	> 100 µM (inactive)	> 100 µM (inactive)	> 100 µM (inactive)	> 100 µM (inactive)	> 100 µM (inactive)	> 100 µM (inactive)	> 100 µM (inactive)	> 100 µM (inactive)	> 100 µM (inactive)	> 100 µM (inactive)	> 100 µM (inactive)		> 100 µM (inactive)		> 100 µM (inactive)	> 100 µM	> 100 µM (inactive)		> 100 µM (inactive)
CN/N=C(\C(=O)Nc1ccc(C)c(C)c1)C(C(=O)OC)c1nc2ccc([N+](=O)[O-])cc2nc1O (configuration not stated)	> 100 µM (inactive)		12.6 µM (inactive)	> 100 µM (inactive)	> 100 µM (inactive)	94.4 µM (inactive)	83.8 µM (inactive)	52.7 µM (inactive)	> 100 µM (inactive)	> 100 µM (inactive)	> 100 µM (inactive)	> 100 µM (inactive)	> 100 µM (inactive)	> 100 µM (inactive)	> 100 µM (inactive)		85.1 µM	> 100 µM (inactive)	> 100 µM (inactive)	60.5 µM (inactive)
O=C1OC2(CC1C1(O)C3CC4CC(C3)CC1C4)C1CC3CC(C1)CC2C3 (configuration not stated)	> 100 µM (inactive)	44.6 µM (inactive)		> 100 µM (inactive)	> 100 µM (inactive)	> 100 µM (inactive)	> 100 µM (inactive)		> 100 µM (inactive)	65.3 µM (inactive)	35.1 µM (inactive)		56.4 µM (inactive)	> 100 µM (inactive)		58.3 µM (inactive)	> 100 µM	77.6 µM (inactive)	38.3 µM (inactive)	
COc1cc(C2C(Cl)C(=O)N2NC(=O)c2ccccc2O)ccc1O (configuration not stated)	> 100 µM (inactive)	> 100 µM (inactive)	> 100 µM (inactive)	> 100 µM (inactive)	> 100 µM (inactive)	> 100 µM (inactive)	> 100 µM (inactive)		> 100 µM (inactive)	> 100 µM (inactive)	70.8 µM (inactive)	> 100 µM (inactive)	> 100 µM (inactive)	> 100 µM (inactive)	> 100 µM (inactive)	> 100 µM (inactive)	> 100 µM	> 100 µM (inactive)	> 100 µM (inactive)	
